Reference: patent publication US20090269362A1, “Method for Controlling Immunodominance” (priority 2005, published 2009)

Key:
sI-A^d [1] = conditions: pH 5.3, 37° C., FITC peptide from sI-A^d
[2] = test system: peptide specific T cell hybridomas; experiment: T cell hybridoma assay (IL-2 production, CTLL/MTT); format: cell-based, mouse
lymph node cells = experiment: IL-2 ELISPOT after immunization with peptide (cross reactivity of WT and variant); format: in vivo, mouse; conditions: mice immunized with WT or variant peptide
CD4 T cells [3] = experiment: IL-2 ELISPOT of draining lymph node cells after immunization with MalE:insert protein; format: in vivo, mouse; conditions: mice immunized with MalE protein
sI-A^d [4] = experiment: Peptide competition with FITC-HA[126-138] for binding to soluble I-A^d; set-up: species or system mouse; conditions: 1 μM FITC-HA[126-138], 20 nM soluble I-A^d
Experimental: B. The percentage of inhibition of binding of 1 μM N-terminal FITC-HA[126-138] to sI-A^d by the unlabeled competitor peptide was plotted against the concentration of unlabeled inhibitory peptide. Data is represented as a Hill Plot (Hill, J Physiol 40, iv-vii, 1910), and is the average of 2 independent experiments
Soluble I-A^d (20 nM) and 1 μM FITC-HA[126-138] were used for competition assays, which is in the titratable range of peptide and class II molecules. Unlabeled competitor peptides at a final concentrations ranging between 0-500 μM were mixed, and after 16-20 h of incubation at 37° C., the sI-A^d-FITC-HA[126-138] complex was separated from free peptide and quantified as described above. Inhibition by competitor peptides was calculated using the Hill equation ((Hill, J Physiol 40, iv-vii, 1910), with the IC50 value the concentration of unlabeled competitor peptide required to achieve 50% inhibition of the labeled peptide binding to class II molecules.

CD4 T cells [5] = experiment: IL-2 ELISPOT after immunization with OVA protein; format: in vivo, mouse; conditions: mice immunized with OVA protein
Experimental: Groups of 2 BALB/c mice were immunized in the footpad with (A) 200 μg/mL OVA protein, (B) 200 μg/mL of the indicated MalE protein, or (D and E) 5 nmol of the indicated peptide emulsified in 50 μL PBS:CFA. The number of IL-2 producing cells at day 10 was determined by 16 h in vitro stimulation of CD4 purified cells with syngeneic spleen cells and (A) 200 μg/mL protein or 12.5 μM peptide, (B) 200 μg/mL protein or 5 μM peptide, or (D and E) the indicated amount of peptide and quantified using IL-2 ELISPOT assays with background subtracted. (A and D) Data represents the mean counts of two separate cell dilutions ([…] and 1.25×10^5) of triplicate wells normalized as indicated. […] Data are representative of at least 2 independent experiments.
To provide another example of a cryptic epitope that can gain immunodominance by simply changing its kinetic stability with I-A^d, one of the peptide registers contained within the prototypic I-A^d-restricted peptide OVA [323-339] (Jenkins et al., Annu Rev Immunol 19, 23-45, 2001; Sette et al., J Immunol 142, 35-40, 1988) was studied. Several studies (McFarland et al., Biochemistry 38, 16663-16670, 1999; Robertson et al., J Immunol 164, 4706-4712, 2000) have shown that this long peptide contains several alternative registers, including the most amino terminal segment that was co-crystallized with I-A^d (Scott et al., Immunity 1, 73-83, 1998). […]

sI-A^d, sequence (P04228 24-111 limits assumed): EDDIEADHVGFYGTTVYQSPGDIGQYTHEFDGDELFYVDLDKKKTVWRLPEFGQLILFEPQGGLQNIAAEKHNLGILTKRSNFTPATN
sI-A^d, sequence (P01921 28-122 limits assumed, further chain): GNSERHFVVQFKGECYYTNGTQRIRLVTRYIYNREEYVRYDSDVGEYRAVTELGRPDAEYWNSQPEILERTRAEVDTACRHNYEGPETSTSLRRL

A332I, I334V: OVA [327-339] variant with substitutions at P4 and P6 (AVHAAHIEVNEAG; UniProt P01012 327-339, looked up, variant A332I I334V)
t1/2 (half-life, kinetic stability) of peptide with I-A^d (sI-A^d [1]): greater than 80 h | stimulation of specific T cell hybridoma by soluble peptide (in words) ([2]; peptide presented by I-A^d expressing cells): recognized by the 3DO11.10 T cell hybridoma | cross reactivity between WT and variant peptide after peptide immunization (in words) (lymph node cells): cross-reacted back onto the WT OVA peptide | immunogenicity of peptide within MalE (in words) (CD4 T cells [3]): immunodominant peptide

AMKRHGLDNYRGYSL [HEL [11-25], hen-egg lysozyme [11-25], prototypic cryptic peptide]
t1/2 (half-life, kinetic stability) of peptide with I-A^d (sI-A^d [1]): 6 h | competition with HA [126-138] for binding to I-A^d (in words) (sI-A^d [4]): competed well | reactivity of specific T cell hybridoma to peptide inserted into MalE (in words) ([2]; MalE:insert protein, BALB/c spleen as APCs): gained reactivity | immunogenicity of peptide within MalE (in words) (CD4 T cells [3]): failure in immunogenicity

HEL R14Q, G22S: HEL [11-25] variant with changes at P1 and P9 (AMKQHGLDNYRSYSL; UniProt P00698 29-43, looked up, variant R14Q G22S)
t1/2 (half-life, kinetic stability) of peptide with I-A^d (sI-A^d [1]): 11 h | immunogenicity of peptide within MalE (in words) (CD4 T cells [3]): remained non-immunogenic

HEL [20-35]: cryptic epitope of hen-egg lysozyme (YRGYSLGNWVCAAKFE; UniProt P00698 38-53, looked up, fragment)
t1/2 (half-life, kinetic stability) of peptide with I-A^d (sI-A^d [1]): 4 h | competition with HA [126-138] for binding to I-A^d (in words) (sI-A^d [4]): competed poorly

OVA [273-288]: immunodominant I-Ad restricted epitope from chicken ovalbumin (VMEERKIKVYLPRMKM; UniProt P01012 273-288, looked up, fragment)
t1/2 (half-life, kinetic stability) of peptide with I-A^d (sI-A^d [1]): 160 h

OVA [327-339]: carboxyterminal register of OVA [323-339] recognized by the 3DO11.10 T cell (AVHAAHAEINEAG; UniProt P01012 327-339, looked up, fragment)
t1/2 (half-life, kinetic stability) of peptide with I-A^d (sI-A^d [1]): 0.3 h | percent of T cells raised against OVA that recognize the peptide (CD4 T cells [5]): Less than 1%

R14Q, N19A, G22S: HEL [11-25] variant with changes at P1, P6, and P9 (AMKQHGLDAYRSYSL; UniProt P00698 29-43, looked up, variant R14Q N19A G22S)
t1/2 (half-life, kinetic stability) of peptide with I-A^d (sI-A^d [1]): 35 h | cross reactivity between WT and variant peptide after peptide immunization (in words) (lymph node cells): a significant portion of the T cells elicited were non-reactive with the WT HEL peptide | immunogenicity of peptide within MalE (in words) (CD4 T cells [3]): significant gain in immunogenicity
